Measurements from patent publication US20170000902A1, “EGFR-TARGETED NANOPARTICLES” (CALIFORNIA INSTITUTE OF TECHNOLOGY, priority 2014, published 2017).

Tested on: EGFR mRNA
Experiment: siEGFR knock down of EGFR mRNA expression
Type: cell-based
Conditions: 50 picomolar concentration of siRNA; expression knocked down to this level
From the text: Nanoparticles were designed to specifically target EGFR-positive non-small cell lung cancer (NSCLC) cells and deliver siRNA to hinder EGFR expression. The nanoparticles have 4 primary components (see FIG. 1): • 1. A biocompatible cationic mucic acid polymer (cMAP) that encapsulates siRNA with a charge ratio (+/−) of 1; • 2. 5-nitrophenyl boronic acid-mPEG (5-nPBA-mPEG), which binds to cMAP through boronic acids' interaction with diols present on cMAP, to form a coating of methoxy-polyethylene glycol (mPEG) in order to ensure particle stability in serum; • 3. Cetuximab, the targeting agent for the particle, also attached to cMAP through a 5-nitrophenyl boronic acid-PEG entity; and • 4. siRNA against EGFR (siEGFR), able to knock down EGFR mRNA expression to 20% at a 50 picomolar concentration (see SEQ ID NO: 1). The resulting nanoparticles are cetuximab-conjugated cMAP-siEGFR nanoparticles.

siEGFR: siRNA against EGFR, SEQ ID NO: 1 bound to SEQ ID NO: 2 (chain 1 UAAUUUCCAAAUUCCCAAGGAC; chain 2 CCUUGGGAAUUUGGAAAUUAUA; listed as RNA, chemistry not given here)
EGFR mRNA expression after knock down: 20%
